One assay deals with SNP cells. The experiment in a line: Kinetics experiment to assess apoptosis (IncuCyte Annexin V live-cell analysis). The class given is cell-based, canine. As to conditions: 5 J/cm^2. The protocol: SNP cells were seeded at a density of (1–2) × 10^4 cells/well in 96-well plates and incubated for 24 h. The cells were then incubated with various concentrations of G-Ce6 (0, 0.064, 0.32, 1.6, or 8.0 μg/mL) for 24 h at 37 °C. After washing with fresh media, the cells were irradiated with 650-nm laser light (10 mW/cm^2, 5 J/cm^2) emitted by a semiconductor laser, using an optical fiber with a microlens delivery attachment. The cells were then stained with IncuCyte® Annexin V (Essen BioScience Inc., Ann Arbor, MI, USA) immediately following PDT, and incubated in a 5% CO2 atmosphere at 37 °C for 24 h. Images were automatically captured every 1 h for 24 h in phase-contrast and fluorescence modes using the IncuCyte® S3 system; phase contrast and green-phase images were obtained from the system. The total green object integrated intensity (green calibrated unit (GCU) × μm²/image) in an image was determined by object counting with IncuCyte® S3 Software according to the manufacturer’s protocol. In the present study, object counting is defined as the total sum of the intensity of Annexin V Green fluorescence in the image.

The subject of a further assay is SNP tumors. Briefly: Histological examination of SNP tumors after PDT (H&E). The class given is in vivo, NOD/ShiJic-scidJcl mice. The protocol: To examine PDT-induced histological changes in the tumor tissue and surrounding normal tissue, animals were sacrificed via cervical dislocation, and the tumors were harvested at 24 h after PDT. The tumor tissues were fixed in 10% buffered formalin and embedded in paraffin. Tumor sections were cut at a thickness of 4 μm, stained with hematoxylin & eosin (H&E), and examined under a light microscope (Olympus BX51).

Consider `CCC1=C(C)c2cc3[nH]c(cc4nc(c(CC(=O)OC)c5[nH]c(cc1n2)c(C)c5C(=O)OC)[C@@H](CCC(=O)OC)[C@@H]4C)c(C)c3C(C)OCCCS[C@@H]1O[C@H](CO)[C@@H](O)[C@H](O)[C@H]1O` (stereo partly drawn) [G-Ce6, Methyl (7S,8S)-18-ethyl-5-(2-methoxy-2-oxoethyl)-7-(3-methoxy-3-oxopropyl)-2,8,12,17-tetramethyl-13-(1-(3-(((2S,3R,4S,5S,6R)-3,4,5-trihydroxy-6-(hydroxymethyl)tetrahydro-2H-pyran-2-yl)thio)propoxy)ethyl)-7H,8H-porphyrin-3-carboxylate], for which, in the assay with SNP cells (0.32 μg/mL), the “Time after PDT at which GCU began to increase” value lay in the range of 1 to 3 h and the “Time after PDT at which GCU reached a maximum” value was determined as 10 h. The “Time after PDT at which apoptosis (GCU) reached a plateau” value with SNP cells (8 μg/mL) is reported as “approximately 4 h”. The “Total green object integrated intensity (GCU × μm²/image) after PDT” value in the assay on SNP cells (<0.064 μg/mL) is “did not increase”. Further, the “Histological findings 24 h after PDT” value in the assay on SNP tumors (3-h-interval PDT) was “cells at the superficial tumor tissue appeared necrotic, whereas deep-seated tumor cells appeared intact”. The “Histological findings 24 h after PDT” value with SNP tumors (5-min-interval PDT) is on record as “widespread tumor cells appeared necrotic”.

Source of the values: paper PMC6562844, “A Basic Study of Photodynamic Therapy with Glucose-Conjugated Chlorin e6 Using Mammary Carcinoma Xenografts” (Cancers, 2019).
